Source: ChEMBL document CHEMBL3217557, “Triazole-substituted N-hydroxyindol-2-carboxylates as inhibitors of isoform 5 of human lactate dehydrogenase (hLDH5)” (Medchemcomm, 2011)

Columns and labels:
[1] = target: T1, L-lactate dehydrogenase A chain (Homo sapiens, UniProt P00338); assay: Competitive inhibition of human LDHA4 using sodium pyruvate as substrate measured every 30 secs for 5 mins by Lineweaver-Burk plot analysis in presence of 12.5 to 150 uM NADH
Homo sapiens = organism: Homo sapiens; assay: Inhibition of human LDH1 using sodium pyruvate as substrate assessed as NADH oxidation at 125 uM measured every 30 secs for 5 mins by spectrophotometric analysis relative to control
[2] = target: T1, L-lactate dehydrogenase A chain; assay: Inhibition of human LDHA4 using sodium pyruvate as substrate assessed as NADH oxidation at 125 uM measured every 30 secs for 5 mins by spectrophotometric analysis relative to control
[3] = target: T1, L-lactate dehydrogenase A chain; assay: Competitive inhibition of human LDHA4 using 0.025 to 1 mM sodium pyruvate as substrate measured every 30 secs for 5 mins by Lineweaver-Burk plot analysis in presence of NADH
[4] = Competitive inhibition of human LDH1 using sodium pyruvate as substrate measured every 30 secs for 5 mins by Lineweaver-Burk plot analysis in presence of 12.5 to 150 uM NADH

| SMILES | Ki [1] [µM] | inhibition (Homo sapiens) [%] | inhibition [2] [%] | Ki [3] [µM] | Ki [4] [µM] |
| --- | --- | --- | --- | --- | --- |
| O=C(O)c1cc2ccc(-n3cc(CCCc4cn(-c5ccc6cc(C(=O)O)n(O)c6c5)nn4)nn3)cc2n1O | 20 | 32 | 83 | 37 |  |
| CCCCc1cn(-c2cccc3c2cc(C(=O)O)n3O)nn1 |  |  | < 15 |  |  |
| O=C(O)c1cccc(-c2cn(-c3ccc4c(c3)cc(C(=O)O)n4O)nn2)c1 |  |  | < 15 |  |  |
| O=C(O)c1cccc(-c2cn(-c3ccc4cc(C(=O)O)n(O)c4c3)nn2)c1 | 50 | < 3 | 65 | 45 |  |

Now from value to compound:

| Ki [1] [µM] | inhibition (Homo sapiens) [%] | inhibition [2] [%] | Ki [3] [µM] | Ki [4] [µM] | SMILES |
| --- | --- | --- | --- | --- | --- |
|  |  | < 15 |  |  | O=C(O)c1cc2c(-n3cc(CCO)nn3)cccc2n1O |
| 57 | 60 | 60 | 86 | 89 | O=C(O)c1cccc(-c2cn(-c3cccc4c3cc(C(=O)O)n4O)nn2)c1 |
| 28 | < 3 | 73 | 44 |  | O=C(O)c1cc2c(-n3cc(-c4ccccc4)nn3)cccc2n1O |
|  |  | < 15 |  |  | O=C(O)c1cc2cc(-n3cc(-c4ccccc4)nn3)ccc2n1O |
